From US11180496B2 (Daewoong Pharmaceutical Co., Ltd., priority 2017, dated 2021) come the findings set out here.

Assay [1] has as its target T1, ITK (Homo sapiens, UniProt Q08881).
T1 construct: purchased Promega
T1 sequence (Q08881 1-620): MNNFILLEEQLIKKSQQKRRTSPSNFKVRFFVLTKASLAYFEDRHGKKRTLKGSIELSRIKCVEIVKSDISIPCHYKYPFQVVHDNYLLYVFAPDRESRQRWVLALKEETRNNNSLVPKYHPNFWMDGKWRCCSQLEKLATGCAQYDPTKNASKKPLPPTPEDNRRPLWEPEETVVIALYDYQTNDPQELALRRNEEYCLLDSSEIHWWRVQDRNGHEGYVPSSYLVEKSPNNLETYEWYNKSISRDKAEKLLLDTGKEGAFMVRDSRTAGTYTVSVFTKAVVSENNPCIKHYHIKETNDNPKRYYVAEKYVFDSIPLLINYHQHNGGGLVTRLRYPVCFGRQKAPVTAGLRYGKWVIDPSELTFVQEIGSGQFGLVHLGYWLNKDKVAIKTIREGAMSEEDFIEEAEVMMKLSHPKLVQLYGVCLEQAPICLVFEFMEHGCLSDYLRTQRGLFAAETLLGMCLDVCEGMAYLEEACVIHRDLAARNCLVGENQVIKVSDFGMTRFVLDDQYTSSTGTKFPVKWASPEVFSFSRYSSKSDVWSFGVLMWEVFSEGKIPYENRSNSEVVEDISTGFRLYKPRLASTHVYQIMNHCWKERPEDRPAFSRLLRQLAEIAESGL
As to the kind of experiment: ITK inhibitory activity, ADP-Glo + ITK Kinase enzyme system kit (Promega). Type of assay: biochemical. As to conditions: ITK enzyme 0.4 ng/uL, ATP 25 uM, 15 min preincubation, luminescence, duplicate. As to the method: (§1) The inhibitory activity against BTK and ITK of the compounds prepared in Examples above were measured as follows.
(§2) The inhibitory activity against ITK was evaluated using ‘ADP-Glo™+ITK Kinase enzyme system’ kit from Promega. […] 5 uL of substrate and 5 uL of ATP prepared at a final concentration of 25 uM were added to all wells of the plate after completion of the reaction, and allowed to react at 30° C. for 1 hour. All wells of the plate after completion of the reaction were treated with 25 uL of ADP-Glo™ reagent and reacted at 30° C. for 40 minutes. Then, 50 uL of the kinase detection buffer was applied to all wells of the plate, and then the light was blocked and reacted at 30° C. for 30 minutes. For the plate for which all reactions were completed, the luminescence was measured and the results were calculated. The evaluation was performed in duplicate. The respective values of negative and positive controls, depending on whether the enzymes were added without treatment of the compound, were determined, and IC50 was calculated based on the values.

The target of assay [2] is T2, BTK (Homo sapiens, UniProt Q06187).
T2 construct: purchased Promega
As to the kind of experiment: BTK inhibitory activity, ADP-Glo + BTK Kinase enzyme system kit (Promega). Type of assay: biochemical. The note with it: BTK enzyme 1 ng/uL, ATP 10 uM, 15 min preincubation, luminescence, duplicate. Here is the method:
as §1
as §2, with “against BTK” for “against ITK”, “using ‘ADP-Glo™+BTK” for “using ‘ADP-Glo™+ITK”, “of 10” for “of 25”

T2 sequence (Q06187 whole entry): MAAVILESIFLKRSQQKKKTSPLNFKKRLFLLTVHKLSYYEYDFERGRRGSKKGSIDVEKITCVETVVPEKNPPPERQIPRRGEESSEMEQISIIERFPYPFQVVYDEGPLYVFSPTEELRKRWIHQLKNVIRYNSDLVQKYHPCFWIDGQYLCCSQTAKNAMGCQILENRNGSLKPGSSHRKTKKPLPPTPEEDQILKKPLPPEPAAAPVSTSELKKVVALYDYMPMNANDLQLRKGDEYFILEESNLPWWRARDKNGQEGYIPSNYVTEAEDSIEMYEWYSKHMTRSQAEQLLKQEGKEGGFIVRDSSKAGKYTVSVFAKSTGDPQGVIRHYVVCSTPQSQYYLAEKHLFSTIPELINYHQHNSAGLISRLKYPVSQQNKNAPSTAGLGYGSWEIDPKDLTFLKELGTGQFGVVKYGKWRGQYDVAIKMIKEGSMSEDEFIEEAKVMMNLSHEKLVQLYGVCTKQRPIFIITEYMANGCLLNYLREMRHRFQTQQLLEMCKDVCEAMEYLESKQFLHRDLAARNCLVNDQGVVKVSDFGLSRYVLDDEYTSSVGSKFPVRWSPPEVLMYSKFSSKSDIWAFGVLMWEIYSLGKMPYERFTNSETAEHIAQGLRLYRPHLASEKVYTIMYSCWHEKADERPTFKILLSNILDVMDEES

Turning to `C=CC(=O)N1CCC[C@@H](n2nc(C(=O)Nc3nc4cc(F)ccc4o3)c3c(N)ncc(Cl)c32)C1` [Example 76, (R)-1-(1-acryloylpiperidin-3-yl)-4-amino-7-chloro-N-(5-fluorobenzo[d]oxazol-2-yl)-1H-pyrazolo[4,3-c]pyridine-3-carboxamide], the IC50 in assay [1] is 2.1 nM; in assay [2], 1.5 nM.

Consider `C=CC(=O)N1CCC[C@@H](n2nc(-c3ccc(C(=O)Nc4ccccc4)cc3)c3c(N)ncc(Br)c32)C1` [Example 24, (R)-4-(1-(1-acryloylpiperidin-3-yl)-4-amino-7-bromo-1H-pyrazolo[4,3-c]pyridin-3-yl)-N-phenyl benzamide], for which the IC50 is 36.8 nM in assay [1] and 1.2 nM in assay [2].

In the case of `C=CC(=O)N1CC(n2nc(-c3ccc(C(=O)Nc4ccccn4)cc3Cl)c3c(N)ncc(Cl)c32)C1` [Example 64, 4-(1-(1-acryloylazetidin-3-yl)-4-amino-7-chloro-1H-pyrazolo[4,3-c]pyridin-3-yl)-3-chloro-N-(pyridin-2-yl)benzamide], the figures for the IC50 in assay [1] and in assay [2] were 22.5 nM and 1.1 nM, respectively.

For `C=CC(=O)N1CCC[C@@H](n2nc(-c3ccc(C(=O)Nc4ccccn4)cc3Cl)c3c(N)ncc(C=C)c32)C1` [Example 69, (R)-4-(1-(1-acryloylpiperidin-3-yl)-4-amino-7-vinyl-1H-pyrazolo[4,3-c]pyridin-3-yl)-3-chloro-N-(pyridin-2-yl)benzamide], the IC50 in assay [1] worked out at 2.9 nM; in assay [2], 2 nM.

In the case of `C=CC(=O)N1CCC[C@@H](n2nc(-c3ccc(C(=O)Nc4ccccc4)cc3)c3c(N)ncc(-c4cnc(C)s4)c32)C1` [Example 32, (R)-4-(1-(1-acryloylpiperidin-3-yl)-4-amino-7-(2-methylthiazol-5-yl)-1H-pyrazolo[4,3-c]pyridin-3-yl)-N-phenylbenzamide], the IC50 in assay [1] turned out to be 200 nM; in assay [2], 6.2 nM.

For the compound `C=CC(=O)N1CCC[C@@H](n2nc(-c3ccc(C(=O)Nc4ccccc4)cc3)c3c(N)ncc(-c4cnn(C)c4)c32)C1` [Example 26, (R)-4-(1-(1-acryloylpiperidin-3-yl)-4-amino-7-(1-methyl-1H-pyrazol-4-yl)-1H-pyrazolo[4,3-c]pyridin-3-yl)-N-phenyl benzamide], the IC50 in assay [1] worked out at 59.3 nM; in assay [2], 2.7 nM.

Take `C=CC(=O)N1CCC[C@@H](n2nc(-c3ccc(C(=O)Nc4ccccc4)cc3)c3c(N)ncc(-c4cnn(CCN5CCCC5)c4)c32)C1` [Example 37, (R)-4-(1-(1-acryloylpiperidin-3-yl)-4-amino-7-(1-(2-(pyrrolidin-1-yl)ethyl)-1H-pyrazol-4-yl)-1H-pyrazolo[4,3-c]pyridin-3-yl)-N-phenyl benzamide]: the IC50 in assay [1] came out at 91.3 nM; in assay [2], 3 nM.

Regarding `C=CC(=O)N1CCC[C@@H](n2nc(-c3ccc(C(=O)Nc4ccccc4)cc3)c3c(N)nccc32)C1` [Example 22, (R)-4-(1-(1-acryloylpiperidin-3-yl)-4-amino-1H-pyrazolo[4,3-c]pyridin-3-yl)-N-phenyl benzamide], the IC50 in assay [1] came out at 131 nM; in assay [2], 2.5 nM.

For the compound `C=CC(=O)N1CCC[C@@H](n2nc(-c3ccc(C(=O)Nc4ccccn4)cc3Cl)c3c(N)ncc(-c4cnn(C)c4)c32)C1` [Example 67, (R)-4-(1-(1-acryloylpiperidin-3-yl)-4-amino-7-(1-methyl-1H-pyrazol-4-yl)-1H-pyrazolo[4,3-c]pyridin-3-yl)-3-chloro-N-(pyridin-2-yl)benzamide], the figures for the IC50 in assay [1] and in assay [2] were 2.7 nM and 2 nM, respectively.

Take `C=CC(=O)N1CCC[C@@H](n2nc(C(=O)Nc3ccc4c(c3)OCCO4)c3c(N)ncc(Cl)c32)C1` [Example 79, (R)-1-(1-acryloylpiperidin-3-yl)-4-amino-7-chloro-N-(2,3-di hydrobenzo[b][1,4]dioxin-6-yl)-1H-pyrazolo[4,3-c]pyridine-3-carboxamide]: the IC50 in assay [1] worked out at 54.9 nM; in assay [2] it was 100 nM.

On to `C=CC(=O)N1CCCC(n2nc(-c3ccc(Oc4ccccc4)cc3)c3c(N)nccc32)C1` (stereo not shown) [Example 1, 1-(3-(4-amino-3-(4-phenoxyphenyl)-1H-pyrazolo[4,3-c]pyridin-1-yl)piperidin-1-yl)prop-2-en-1-one], for which the IC50 in assay [1] came out at 37.7 nM; in assay [2], 1.4 nM.

Take `C=CC(=O)N1CCC[C@@H](n2nc(-c3ccc(C(=O)Nc4ccccc4)cc3)c3c(N)ncc(-c4cnn(C5CCOCC5)c4)c32)C1` [Example 34, (R)-4-(1-(1-acryloylpiperidin-3-yl)-4-amino-7-(1-(tetrahydro-2H-pyran-4-yl)-1H-pyrazol-4-yl)-1H-pyrazolo[4,3-c]pyridin-3-yl)-N-phenylbenzamide]: the IC50 stood at 293 nM in assay [1] and 2.3 nM in assay [2].

Regarding `C=CC(=O)N1CCC[C@@H](n2nc(-c3ccc(C(=O)Nc4ccccn4)cc3F)c3c(N)ncc(I)c32)C1` [Example 50, (R)-4-(1-(1-acryloylpiperidin-3-yl)-4-amino-7-iodo-1H-pyrazolo[4,3-c]pyridin-3-yl)-3-fluoro-N-(pyridin-2-yl)benzamide], the IC50 amounted to 2.1 nM in assay [1] and 1.3 nM in assay [2].

`C=CC(=O)N1CCC(n2nc(-c3ccc(Oc4ccccc4)cc3)c3c(N)nccc32)CC1` [Example 3, 1-(4-(4-amino-3-(4-phenoxyphenyl)-1H-pyrazolo[4,3-c]pyridin-1-yl)piperidin-1-yl)prop-2-en-1-one]: the IC50 in assay [1] was greater than 1000 nM; in assay [2] it was 2.7 nM.

`C=CC(=O)N1CCC[C@@H](n2nc(-c3ccc(C(=O)Nc4ccccc4)cc3)c3c(N)ncc(-c4cnn(C(F)F)c4)c32)C1` [Example 33, (R)-4-(1-(1-acryloylpiperidin-3-yl)-4-amino-7-(1-(difluoromethyl)-1H-pyrazol-4-yl)-1H-pyrazolo[4,3-c]pyridin-3-yl)-N-phenylbenzamide]: the values for the IC50 in assay [1] and in assay [2] were 307 nM and 10.2 nM, respectively.

As for `C=CC(=O)N1CCC(n2nc(-c3ccc(Oc4ccccc4)cc3)c3c(N)ncc(/C=C/c4ccc(F)cc4)c32)CC1` [Example 15, (E)-1-(4-(4-amino-7-(4-fluorostyryl)-3-(4-phenoxyphenyl)-1H-pyrazolo[4,3-c]pyridin-1-yl)piperidin-1-yl)prop-2-en-1-one], the IC50 is greater than 500 nM in assay [1] and 3.7 nM in assay [2].

Take `C=CC(=O)N1CCC[C@@H](n2nc(-c3ccc(C(=O)Nc4ccccc4)cc3)c3c(N)ncc(-c4cnn(CCN(C)C)c4)c32)C1` [Example 36, (R)-4-(1-(1-acryloylpiperidin-3-yl)-4-amino-7-(1-(2-(dimethylamino)ethyl)-1H-pyrazol-4-yl)-1H-pyrazolo[4,3-c]pyridin-3-yl)-N-phenylbenzamide]: the IC50 is 89 nM in assay [1] and 1.5 nM in assay [2].

`C=CC(=O)N1CCC[C@@H](n2nc(-c3ccc(C(=O)Nc4ccccn4)cc3)c3c(N)nccc32)C1` [Example 18, (R)-4-(1-(1-acryloylpiperidin-3-yl)-4-amino-1H-pyrazolo[4,3-c]pyridin-3-yl)-N-(pyridin-2-yl)benzamide]: the IC50 was found to be 26.4 nM in assay [1] and 1 nM in assay [2].

For the compound `C=CC(=O)N1CC(n2nc(-c3ccc(C(=O)Nc4ccccn4)cc3F)c3c(N)ncc(Cl)c32)C1` [Example 60, 4-(1-(1-acryloylazetidin-3-yl)-4-amino-7-chloro-1H-pyrazolo[4,3-c]pyridin-3-yl)-3-fluoro-N-(pyridin-2-yl)benzamide], the IC50 in assay [1] was 263 nM; in assay [2], 0.4 nM.

As to `C=CC(=O)N1CCCC(n2nc(-c3ccc(Oc4ccccc4)cc3)c3c(N)ncc(Cl)c32)C1` (stereo not shown) [Example 9, 1-(3-(4-amino-7-chloro-3-(4-phenoxyphenyl)-1H-pyrazolo[4,3-c]pyridin-1-yl)piperidin-1-yl)prop-2-en-1-one], the IC50 amounted to 11.3 nM in assay [1] and 1.5 nM in assay [2].
